According to US20260183274A1, “PDK1 REGULATORY COMPOUND AND COMPOSITION CONTAINING THE SAME” (PROVIBIO CO., LTD., priority 2024, published 2026):

Tested on: T cells isolated from mouse spleens
Assay: T cell proliferation inhibition (CFSE flow cytometry, anti-CD3/anti-CD28 stimulation)
Format: cell-based
Conditions: mouse spleen T cells, 3 days; for inhibition at 0.01 µM / inhibition at 0.1 µM / inhibition at 1 µM / inhibition at 10 µM / inhibition at 30 µM / inhibition at 50 µM: Mus musculus, T-cell, 72 h, read-out: Proliferation inhibition rate (%)
How it was run: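 Splenic T cells from 7-week-old C57BL/6 mice were MACS-isolated, CFSE-labelled, seeded at 2×10^5 cells/well and activated with anti-CD3/anti-CD28 (0.5 μg/mL each). Compound at 10 nM–50 μM (six levels, triplicate) was present for 3 days at 37 °C before flow cytometric readout of proliferation inhibition rate.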

SMILES	inhibition at 0.01 µM (compound 10 nM) [%]	inhibition at 0.1 µM (compound 100 nM) [%]	inhibition at 1 µM (compound 1 μM) [%]	inhibition at 10 µM (compound 10 μM) [%]	inhibition at 30 µM (compound 30 μM) [%]	inhibition at 50 µM (compound 50 μM) [%]	Proliferation inhibition rate (%) (compound 10 nM, listed as GO87, 0.01 µM)	Proliferation inhibition rate (%) (compound 100 nM, listed as GO87, 0.1 µM)	Proliferation inhibition rate (%) (compound 10 μM, listed as GO87, 10 µM)	Proliferation inhibition rate (%) (compound 10 nM)	Proliferation inhibition rate (%) (compound 100 nM)	Proliferation inhibition rate (%) (compound 1 μM)	Proliferation inhibition rate (%) (compound 10 μM)	Proliferation inhibition rate (%) (compound 30 μM)	Proliferation inhibition rate (%) (compound 50 μM)
CN1CCN(CCCCCCCCCCCCNC(=O)c2ccc(-c3ncn[nH]3)cc2)CC1 [Compound 208, N-(12-(4-methylpiperazin-1-yl)dodecyl)-4-(1H-1,2,4-triazol-5-yl)benzamide]	2.46	-0.58	10.6	100	100	100									
O=C(NCCCCCCCCCCCCF)c1cnccc1Cl [Compound 60, 4-Chloro-N-(12-fluoro-dodecyl)-nicotinamide]	-1.92	8.77	6.85	63.5	100	100									
CN1CCN(CCCCCCCCCCCCNC(=O)c2ccc(F)cn2)CC1 [Compound 203, 5-Fluoro-N-(12-(4-methylpiperazin-1-yl)dodecyl)picolinamide]	-4.49	1.16	6.8	100	100	100									
Nc1nc(NC(=O)CCCCCCCCCCCCN2CCC(O)CC2)nc2nc[nH]c12 [Compound 13, 12-(4-hydroxypiperidin-1-yl)dodecyl-N-(6-aminopurine-2-yl) carboxamide]							9.13	1.71	81.15						
CC1CN(CCCCCCCCCCCCNC(=O)c2cccnc2N)C(C)CN1.Cl (stereo not drawn) [Compound 36, 2-Amino-N-(12-(2,5-dimethylpiperazin-1-yl)dodecyl) nicotinamide hydrochloride]										−38.89	100.00	100.00	100.00	100.00	100.00
CN(CCCCCCCCCCCCNC(=O)c1cccnc1N)C(C)(C)C [Compound 53, 2-Amino-N-(12-(tert-butyl(methyl)amino)dodecyl) nicotinamide]										−26.59	100.00	100.00	100.00	100.00	100.00
Nc1ncccc1C(=O)NCCCCCCCCCCCCN1CCC(F)CC1 [Compound 115, 2-amino-N-(12-(4-fluoropiperidin-1-yl)dodecyl)nicotinamide]	-11.4	100	100	100	100	100									
C[C@@H](C(=O)O)N(C=O)CCCCCCCCCCCCNC(=O)c1cccnc1N [Compound 130, N-(12-(2-aminonicotinamido)dodecyl)-N-formylalanine]	-4.33	-5.22	13.6	85.4	100	100									
Nc1ncccc1C(=O)NCCCCCCCCCCCCN1CCC(C(F)F)CC1 [Compound 107, 2-Amino-N-(12-(4-(difluoromethyl)piperidin-1-yl)dodecyl)nicotinamide]	-35.2	100	100	100	100	100									
Nc1ncccc1C(=O)NCCCCCCCCCCCCN1CCC2CCCCC2C1 (stereo not drawn) [Compound 16, 2-Amino-N-(12-(octahydroisoquinolin-2 (1H)-yl)dodecyl) nicotinamide]										4.13	−2.93	100.00	100.00	100.00	100.00
Cc1c(Cl)cccc1C(=O)NCCCCCCCCCCCCN1CCN(C)CC1 [Compound 219, 3-Chloro-2-methyl-N-(12-(4-methylpiperazin-1-yl)dodecyl)benzamide]	-5.37	2.18	3.48	66.5	100	100									
